According to US8101550B2, “Anthranilic acid diamide derivative with hetero-aromatic and hetero-cyclic substituents” (Bayer Cropscience AG, priority 2006, dated 2012):

assay: log P determination by HPLC on reverse-phase column (EEC Directive 79/831 Annex V.A8); format: physicochemical
Method: The log P values stated in the foregoing tables and preparation examples are determined in accordance with EEC Directive 79/831 Annex V.A8 by means of HPLC (High Performance Liquid Chromatography) on a reverse-phase column (C 18). Temperature: 43° C.
The determination by LC-MS in the acidic range takes place at a pH of 2.7 using 0.1% aqueous formic acid and acetonitrile (containing 0.1% formic acid) as eluents; linear gradient from 10% acetonitrile to 95% acetonitrile.
Calibration is with unbranched alkan-2-ones (having 3 to 16 carbon atoms) of known log P value (log P values determined from the retention times by linear interpolation between two successive alkanones).

SMILES | logP
Cc1cc(Cl)cc(C(=O)NC(C)C)c1NC(=O)c1cc(Cn2cnc(-c3ccc(Cl)cc3)n2)nn1-c1ncccc1Cl [I-1-154] | 3.56
CNC(=O)c1cc(Cl)cc(C)c1NC(=O)c1cc(Cn2nnc(-c3cc(Cl)nc(Cl)c3)n2)nn1-c1ncccc1Cl [I-1-155] | 3.69
Cc1cc(Cl)cc(C(=O)NC(C)C)c1NC(=O)c1cc(Cn2nnc(-c3cc(Cl)nc(Cl)c3)n2)nn1-c1ncccc1Cl [I-1-156] | 4.17
CSC[C@H](C)NC(=O)c1cc(Cl)cc(C)c1NC(=O)c1cc(Cn2nnc(-c3cc(Cl)nc(Cl)c3)n2)nn1-c1ncccc1Cl [I-1-157] | 4.36
CSC[C@H](C)NC(=O)c1cc(Cl)cc(C)c1NC(=O)c1cc(Cn2nnc(-c3ccc(Cl)nc3)n2)nn1-c1ncccc1Cl [I-1-158] | 3.67
CSC[C@H](C)NC(=O)c1cc(Cl)cc(C)c1NC(=O)c1cc(Cn2cnc(-c3ccc(Cl)nc3)n2)nn1-c1ncccc1Cl [I-1-159] | 3.78
CNC(=O)c1cc(Cl)cc(C)c1NC(=O)c1cc(Cn2cnc(C(C)(C)C)n2)nn1-c1ncccc1Cl [I-1-160] | 2.39
Cc1cc(Cl)cc(C(=O)NC(C)C)c1NC(=O)c1cc(Cn2cnc(C(C)(C)C)n2)nn1-c1ncccc1Cl [I-1-161] | 2.87
CSC[C@H](C)NC(=O)c1cc(Cl)cc(C)c1NC(=O)c1cc(Cn2cnc(C(C)(C)C)n2)nn1-c1ncccc1Cl [I-1-162] | 3.10
CNC(=O)c1cc(Cl)cc(C)c1NC(=O)c1cc(Cn2nnnc2-c2ccc(C(F)(F)F)cc2)nn1-c1ncccc1Cl [I-1-163] | 3.15
CNC(=O)c1cc(Cl)cc(C)c1NC(=O)c1cc(Cn2nnc(-c3ccccc3)n2)nn1-c1ncccc1Cl [I-1-165] | 3.09
Cc1cc(Cl)cc(C(=O)NC(C)C)c1NC(=O)c1cc(Cn2nnc(-c3ccccc3)n2)nn1-c1ncccc1Cl [I-1-166] | 3.60
Cc1cc(Cl)cc(C(=O)N=S(C(C)C)C(C)C)c1NC(=O)c1cc(Cn2nc(C(F)(F)F)nc2C(F)(F)F)nn1-c1ncccc1Cl [I-1-167] | 4.44
Cc1cc(Cl)cc(C(=O)NC(C)C)c1NC(=O)c1cc(Cn2nnn(-c3ccc(Cl)cc3)c2=O)nn1-c1ncccc1Cl [I-1-168] | 3.79
Cc1cc(C#N)cc(C(=O)NC(C)C)c1NC(=O)c1cc(Cn2cc(C(F)(F)C(F)(F)F)c(C(F)(F)C(F)(F)F)n2)nn1-c1ncccc1Cl [I-1-169] | 4.55
CNC(=O)c1cc(C#N)cc(C)c1NC(=O)c1cc(Cn2cc(C(F)(F)C(F)(F)F)c(C(F)(F)C(F)(F)F)n2)nn1-c1ncccc1Cl [I-1-170] | 4.08
CNC(=O)c1cc(C#N)cc(C)c1NC(=O)c1cc(Cn2cc(Cl)c(C(F)(F)C(F)(F)F)n2)nn1-c1ncccc1Cl [I-1-171] | 3.44
Cc1cc(C#N)cc(C(=O)NC(C)C)c1NC(=O)c1cc(Cn2cc(Cl)c(C(F)(F)C(F)(F)F)n2)nn1-c1ncccc1Cl [I-1-172] | 3.87
Cc1cc(C#N)cc(C(=O)NC2CC2)c1NC(=O)c1cc(Cn2cc(Cl)c(C(F)(F)C(F)(F)F)n2)nn1-c1ncccc1Cl [I-1-173] | 3.59
Cc1cc(C#N)cc(C(N)=O)c1NC(=O)c1cc(Cn2cc(Cl)c(C(F)(F)C(F)(F)F)n2)nn1-c1ncccc1Cl [I-1-174] | 3.20
Cc1cc(C#N)cc(C(=O)NCC#N)c1NC(=O)c1cc(Cn2cc(Cl)c(C(F)(F)C(F)(F)F)n2)nn1-c1ncccc1Cl [I-1-175] | 3.40
CNC(=O)c1cc(C#N)cc(C)c1NC(=O)c1cc(Cn2nc(C(F)(F)F)nc2C(F)(F)F)nn1-c1ncccc1Cl [I-1-176] | 3.11
Cc1cc(C#N)cc(C(=O)NC(C)C)c1NC(=O)c1cc(Cn2nc(C(F)(F)F)nc2C(F)(F)F)nn1-c1ncccc1Cl [I-1-177] | 3.53
Cc1cc(C#N)cc(C(=O)NC2CC2)c1NC(=O)c1cc(Cn2nc(C(F)(F)F)nc2C(F)(F)F)nn1-c1ncccc1Cl [I-1-178] | 3.31
Cc1cc(C#N)cc(C(N)=O)c1NC(=O)c1cc(Cn2nc(C(F)(F)F)nc2C(F)(F)F)nn1-c1ncccc1Cl [I-1-179] | 2.91
